Blank lines part the entries; values can stand above or below the compound they belong to.
What was measured:
THP-1 [1] = assay: Drug level in human THP1 cells at 250 mg/L after 2 hrs in presence of 50 uM proton inophore monesin relative to control; type: ADME, cell-based; conditions: thp-1, 2 h
THP-1 [2] = assay: Drug level in human THP1 cells at 10 mg/L after 2 hrs in presence of 50 uM proton inophore monesin relative to control; type: ADME, cell-based; conditions: thp-1, 2 h
THP-1 [3] = assay: Drug level in human THP1 cells at 250 mg/L after 30 mins at pH 6; type: ADME, cell-based; conditions: thp-1, pH 6, 0.5 h
THP-1 [4] = assay: Drug level in human THP1 cells at 50 mg/L after 30 mins at pH 6; type: ADME, cell-based; conditions: thp-1, pH 6, 0.5 h
THP-1 [5] = assay: Drug level in human THP1 cells at 50 mg/L after 2 hrs in presence of 50 uM proton inophore monesin relative to control; type: ADME, cell-based; conditions: thp-1, 2 h
[6] = Half life in mouse J774 cells at 4 mg/L; type: ADME, cell-based
THP-1 [7] = assay: Drug level in human THP1 cells at 50 mg/L after 2 hrs in presence 60 mM deoxyglucose and 5 mM NaN3 relative to control; type: ADME, cell-based; conditions: thp-1, 2 h
J774 [8] = assay: Drug level in mouse J774 cells at 50 mg/L at pH 6.5; type: ADME, cell-based; conditions: j774, pH 6.5
[9] = Half life in human THP1 cells at 4 mg/L; type: ADME, cell-based; conditions: THP-1 cells
THP-1 [10] = assay: Drug level in human THP1 cells at 50 mg/L at pH < 7 in presence of 50 uM proton inophore monesin; type: ADME, cell-based
THP-1 [11] = assay: Drug level in human THP1 cells at 50 mg/L after 2 hrs in presence 250 uM efflux pump inhibitor gemfibrozil relative to control; type: ADME, cell-based; conditions: thp-1, 2 h
[12] = Half life in human PMNC at 4 mg/L; type: ADME
THP-1 [13] = assay: Drug level in human THP1 cells at 50 mg/L after 2 hrs in presence 10 uM efflux pump inhibitor verapamil relative to control; type: ADME, cell-based; conditions: thp-1, 2 h
THP-1 [14] = assay: Drug level in human THP1 cells at 50 mg/L at pH 6.5; type: ADME, cell-based; conditions: thp-1, pH 6.5
THP-1 [15] = assay: Ratio of drug level for cellular to extracellular region of human THP-1 cells at 10 to 50 ug/ml; type: ADME, cell-based
THP-1 [16] = assay: Drug level in human THP1 cells at 50 mg/L after 2 hrs in presence of < 10% fetal calf serum relative to control; type: ADME, cell-based; conditions: thp-1, 2 h
J774 [17] = assay: Drug level in mouse J774 cells at 50 mg/L after 2 hrs in presence of < 10% fetal calf serum relative to control; type: ADME, cell-based; conditions: j774, 2 h
[18] = Ratio of drug level for cellular to extracellular region of human PMNC cells at 10 to 50 ug/ml; type: ADME, cell-based
J774 [19] = assay: Drug level in mouse J774 cells at 50 mg/L in presence of 50 uM proton inophore monesin relative to control; type: ADME, cell-based
THP-1 [20] = assay: Drug level in human THP1 cells at 10 mg/L after 2 hrs in presence 10 uM efflux pump inhibitor verapamil relative to control; type: ADME, cell-based; conditions: thp-1, 2 h
THP-1 [21] = assay: Drug level in human THP1 cells at 10 mg/L after 2 hrs in presence 250 uM efflux pump inhibitor gemfibrozil relative to control; type: ADME, cell-based; conditions: thp-1, 2 h
THP-1 [22] = assay: Drug level in human THP1 cells at 10 mg/L at pH =< 6.5; type: ADME, cell-based

- Drug uptake (THP-1 [1]): 25%
- Drug uptake (THP-1 [2]): 10%
- Drug uptake (THP-1 [3]): 25%
- Drug uptake (THP-1 [4]): 25%
- Drug uptake (THP-1 [5]): 20%
SMILES: CC(=O)NC[C@H]1CN(c2ccc(N3CCOCC3)c(F)c2)C(=O)O1 [LINEZOLID]

- half-life at 4 mg/L [6]: 6 min
- Drug uptake (THP-1 [1]): 25%
- Drug uptake (THP-1 [7]): Active
- Drug uptake (THP-1 [2]): 10%
- Drug uptake (J774 [8]): Active
- half-life at 4 mg/L [9]: 6 min
- Drug uptake (THP-1 [10]): Active
- Drug uptake (THP-1 [11]): Active
- half-life at 4 mg/L [12]: 6 min
- Drug uptake (THP-1 [13]): Active
- Drug uptake (THP-1 [3]): 25%
- Drug uptake (THP-1 [14]): Active
- Ratio (THP-1 [15]): 8.5
- Drug uptake (THP-1 [16]): Active
- Drug uptake (J774 [17]): Active
- Drug uptake (THP-1 [4]): 25%
- Ratio [18]: 8.5
- Drug uptake (THP-1 [5]): 20%
- Drug uptake (J774 [19]): 30%
SMILES: CC(=O)NC[C@H]1CN(c2ccc(-c3ccc(CNCc4cnn[nH]4)cc3)c(F)c2)C(=O)O1 [RADEZOLID]

- Ratio (THP-1 [20]): 1.7
- Ratio (THP-1 [21]): 1.7
- Drug uptake (THP-1 [22]): 10%
SMILES: CC[C@H]1OC(=O)[C@H](C)[C@@H](O[C@H]2C[C@@](C)(OC)[C@@H](O)[C@H](C)O2)[C@H](C)[C@@H](O[C@@H]2O[C@H](C)C[C@H](N(C)C)[C@H]2O)[C@](C)(O)C[C@@H](C)CN(C)[C@H](C)[C@@H](O)[C@]1(C)O [AZITHROMYCIN]

Source: ChEMBL document CHEMBL1275594, “Cellular pharmacokinetics of the novel biaryloxazolidinone radezolid in phagocytic cells: studies with macrophages and polymorphonuclear neutrophils” (Antimicrob Agents Chemother, 2010)
